Data taken from patent US9258995B2, “Organ cold storage composition and methods of use” (BOARD OF TRUSTEES OF THE UNIVERSITY OF ARKANSAS, priority 2009, dated 2016).

Columns and labels:
[1] = system: rat kidneys; experiment: Nitrotyrosine immunohistochemistry during CS; settings: 4 h CS, 100 μM
Method: All animals were treated according to the National Institutes of Health Guide for the Care and Use of Laboratory Animals and the University of Arkansas for Medical Sciences Institutional Animal Care and Use Committee guidelines. Male Fischer 344 inbred rats (Charles Rivers Laboratories, Inc., Wilmington, Mass.) weighing between 250 and 300 g were anesthetized with ethrane, followed by shaving and prepping with betadine. […] Bulldog clamps were placed on the aorta and vena cava (proximal and distal to the renal vessels) to prevent blood flow to the kidneys. A 22-gauge surgical needle was used to puncture the rat's aorta to flush the renal grafts with saline (10 ml per kidney) using a small catheter. Once the kidneys started to turn light brown (perfusion), another vent was formed in the vena cava to allow blood flow from the kidneys. […]
NRK cells (groups 1-4) were assessed for nitrotyrosine formation as previously described. […] Nitrotyrosine staining was evaluated and captured with equal exposure times using a Nikon Eclipse 800 microscope (40×oil). Images were quantified by averaging the mean intensity fluorescence of five random cells in three different fields using Nikon N is Elements software. Renal tissue sections were assessed for the presence of nitrotyrosine protein adducts by nitrotyrosine immunohistochemistry. […]

[2] = system: mitochondrial respiratory complex II; experiment: Mitochondrial respiratory complex activity, rat kidney mitochondria after CS; settings: rat kidneys, 4-h CS, 100 μM
Method: (§1) All animals were treated according to the National Institutes of Health Guide for the Care and Use of Laboratory Animals and the University of Arkansas for Medical Sciences Institutional Animal Care and Use Committee guidelines. Male Fischer 344 inbred rats (Charles Rivers Laboratories, Inc., Wilmington, Mass.) weighing between 250 and 300 g were anesthetized with ethrane, followed by shaving and prepping with betadine. […] Bulldog clamps were placed on the aorta and vena cava (proximal and distal to the renal vessels) to prevent blood flow to the kidneys. A 22-gauge surgical needle was used to puncture the rat's aorta to flush the renal grafts with saline (10 ml per kidney) using a small catheter. Once the kidneys started to turn light brown (perfusion), another vent was formed in the vena cava to allow blood flow from the kidneys. Once both kidneys were completely flushed, the right kidney was recovered and served as a control (group 1), and the left kidney was exposed to CS alone for 4 h at 4° C. (group 2). In additional experiments, kidneys were flushed with saline through the aorta using a small catheter followed by flushing the right kidney with saline containing MitoQ (100 μM) and the left kidney with saline containing DecylTPP (100 μM) (10 ml per kidney). Tissues were recovered and stored in CS+MitoQ (100 μM; right kidney) or CS+DecylTPP (100 μM; left kidney) for 4 h at 4° C. (groups 3 and 4, respectively). A thin middle section from all of the kidneys were cut and immediately fixed in 10% formalin before being embedded in paraffin for sectioning (4 μm) and histological evaluation. The remaining portion of the kidneys were quickly frozen in liquid nitrogen and stored in −80° C. until needed for biochemistry analyses.
(§2) NRK cell and rat kidney mitochondria were isolated by centrifugation on a sucrose density gradient. The activity of mitochondrial respiratory complexes I, II, III, or IV were assayed spectrophotometrically using 100 μg of mitochondrial protein at 30° C. as previously described.

[3] = system: mitochondrial respiratory complex I; experiment: as above; settings: rat kidneys, 4-h CS, 100 μM
Method: as §1, §2

[4] = two phase II clinical trials for Parkinson's disease and hepatitis C virus; cited from earlier work

SMILES: COC1=C(OC)C(=O)C(CCCCCCCCCC[P+](c2ccccc2)(c2ccccc2)c2ccccc2)=C(C)C1=O [MitoQ, mitoquinone]
- nitrotyrosine formation (immunohistochemistry) [1]: less nitrotyrosine formation
- complex II inactivation [2]: protected
- complex I inactivation [3]: protected
- safety and tolerability [4]: safe and well tolerated
